Measurements from patent US5744453A, “Polyamine conjugates for treatment of infection” (priority 1996, dated 1998).
Converted amounts (≈) assume the structure as drawn. Where a name gives a salt, the structure may show the parent alone. Read-outs that look alike come from different tables or passages of the source.

Columns and labels:
Type in all cases: cell-based
[1] = tested on: Escherichia coli strain 25922; experiment: Determination of MIC against bacteria (Table 1), E. coli 25922; details: read-out: minimum inhibitory concentration (MIC), E. coli 25922
Method: (§1) Antibiotic indicator strains Escherichia coli strain 25922, Enterococcus faecalis 29212, Pseudomonas aeruginosa 27853, and Staphylococcus aureus 29213 are obtained from the American Type Tissue Culture Collection (ATCC) in Rockville, Md. The cystic fibrosis isolate, Pseudomonas aeruginosa 39324, is also obtained from ATCC. Bacteria are routinely cultivated in cation-supplemented Mueller-Hinton broth (CAMHB) or agar at 37° C.
(§2) The minimum inhibitory concentration (MIC) of glycosylated and non-glycosylated steroidal polyamines for antibiotic indicator strains is determined by dissolving the test compounds in deionized water to a final concentration of 1 mg per mL. […] These solutions are sterilized by filtration through 0.22 micron syringe filters.
(§3) Stock solutions of individual compounds are serially diluted (two-fold) in sterile CAMHB in 96-well tissue culture dishes (Falcon) and inoculated with antibiotic indicator strains that are prepared as described below.
(§4) Antibiotic indicator strains are grown in 5 mL of CAMHB for 3-4 h at 37° C. with shaking (200 rpm) on a New Brunswick rotary shaker. Bacteria are adjusted to a turbidity that matched a 0.5 McFarland standard (ca. 10^8 CFU per mL) in sterile 0.85% saline. These bacterial suspensions are diluted 1:20 in sterile 0.85% saline and 10 μL (ca. […]) of each suspension is used to inoculate individual wells of a 96 well plate that contained different concentrations of the test compounds. Following inoculation, the plates are sealed with plastic tape, incubated for 24 h at 37° C. and visually inspected for bacterial growth. CAMHB inoculated with each of the antibiotic test strains and uninoculated CAMBH plus each of the test compounds served as positive and negative controls.

[2] = tested on: Pseudomonas aeruginosa 27853; experiment: Determination of MIC against bacteria (Table 1), P. aeruginosa 27853; details: read-out: minimum inhibitory concentration (MIC), P. aeruginosa 27853
Method: as §1, §2, §3, §4

[3] = tested on: Pseudomonas aeruginosa 39324; experiment: Determination of MIC against bacteria (Table 1), P. aeruginosa 39324 (cystic fibrosis isolate); details: read-out: minimum inhibitory concentration (MIC), P. aeruginosa 39324
Method: as §1, §2, §3, §4

[4] = tested on: Enterococcus faecalis 29212; experiment: Determination of MIC against bacteria (Table 1), E. faecalis 29212; details: read-out: minimum inhibitory concentration (MIC), E. faecalis 29212
Method: as §1, §2, §3, §4

[5] = tested on: Staphylococcus aureus 29213; experiment: Determination of MIC against bacteria (Table 1), S. aureus 29213; details: read-out: minimum inhibitory concentration (MIC), S. aureus 29213
Method: as §1, §2, §3, §4

[6] = Pseudomonas aeruginosa, 27853, 24 h
[7] = Pseudomonas aeruginosa, 39324, 24 h
[8] = Enterococcus faecalis, 29212, 24 h
[9] = Staphylococcus aureus, 29213, 24 h
[10] = Escherichia coli, 25922, CAMHB, 24 h at 37° C., tested from 1.56 to 200 μg per mL
[11] = Pseudomonas aeruginosa, 27853, CAMHB, 24 h at 37° C., tested from 1.56 to 200 μg per mL
[12] = Pseudomonas aeruginosa, 39324, CAMHB, 24 h at 37° C., tested from 1.56 to 200 μg per mL
[13] = Enterococcus faecalis, 29212, CAMHB, 24 h at 37° C., tested from 1.56 to 200 μg per mL
[14] = Staphylococcus aureus, 29213, CAMHB, 24 h at 37° C., tested from 1.56 to 200 μg per mL

SMILES	MIC ([1]; Escherichia coli, 25922, 24 h)	MIC [2, 6]	MIC [3, 7]	MIC [4, 8]	MIC [5, 9]	MIC [1, 10]	MIC [2, 11]	MIC [3, 12]	MIC [4, 13]	MIC [5, 14]
C[C@H](CCC(=O)NCCCNCCCCNCCCN)[C@H]1CC[C@H]2[C@@H]3CC[C@@H]4C[C@H](O)CC[C@]4(C)[C@H]3C[C@H](O)[C@]12C [Compound A, 3α,12α-dihydroxy-7-deoxy-5β-cholan-24-oic acid, N-(4,9-diaza-12-aminododecyl)amide]	12.5 µg/mL (≈ 21.7 µM)	3.12 µg/mL (≈ 5.41 µM)	25 µg/mL (≈ 43.3 µM)	12.5 µg/mL (≈ 21.7 µM)	6.25 µg/mL (≈ 10.8 µM)					
C[C@H](CCC(=O)NCCCNCCCCNCCCN)[C@H]1CC[C@H]2[C@@H]3[C@H](O)C[C@@H]4C[C@H](O)CC[C@]4(C)[C@H]3C[C@H](O)[C@]12C [Compound B, 3α,7α,12α-trihydroxy-5β-cholan-24-oic acid, N-(4,9-diaza-12-aminododecyl)amide]	200 µg/mL (≈ 337 µM)	100 to 200 µg/mL (≈ 169 to 337 µM)	100 µg/mL (≈ 169 µM)	200 µg/mL (≈ 337 µM)	50 µg/mL (≈ 84.3 µM)					
C[C@H](CCC(=O)NCCCNCCCCNCCCN)[C@H]1CC[C@H]2[C@@H]3[C@H](O[C@H]4O[C@H](CO)[C@@H](O)[C@H](O)[C@H]4O)C[C@@H]4C[C@H](O)CC[C@]4(C)[C@H]3C[C@H](O[C@H]3O[C@H](CO)[C@@H](O)[C@H](O)[C@H]3O)[C@]12C [Compound C, 3α-hydroxy-7α,12α-di(1'α-glucosyl)-5β-cholan-24-oic acid, N-(4,9-diaza-12-aminododecyl)amide]	200 µg/mL (≈ 218 µM)	200 µg/mL (≈ 218 µM)		> 200 µg/mL	200 µg/mL (≈ 218 µM)					
C[C@H](CCC(=O)NCCCNCCCCNCCCN)[C@H]1CC[C@H]2[C@@H]3CC[C@@H]4C[C@H](O)CC[C@]4(C)[C@H]3C[C@H](O[C@H]3O[C@H](CO)[C@@H](O)[C@H](O)[C@H]3O)[C@]12C [Compound D, 3α-hydroxy-7-deoxy-12α-(1'α-glucosyl)-5β-cholan-24-oic acid, N-(4,9-diaza-12-aminododecyl)amide]	100 µg/mL (≈ 135 µM)	100 to 200 µg/mL (≈ 135 to 271 µM)		200 µg/mL (≈ 271 µM)	50 to 100 µg/mL (≈ 67.7 to 135 µM)					
C[C@H](CCC(=O)NCCCNCCCCNCCCN)[C@H]1CC[C@H]2[C@@H]3[C@H](O[C@H]4O[C@H](CO)[C@@H](O)[C@H](O)[C@H]4O)C[C@@H]4C[C@H](O)CC[C@]4(C)[C@H]3CC[C@]12C [Compound E, 3α-hydroxy-12-deoxy-7α-(1'α-glucosyl)-5β-cholan-24-oic acid, N-(4,9-diaza-12-aminododecyl)amide]	12.5 µg/mL (≈ 16.9 µM)	12.5 µg/mL (≈ 16.9 µM)	12.5 µg/mL (≈ 16.9 µM)	25 µg/mL (≈ 33.8 µM)	25 µg/mL (≈ 33.8 µM)					
C[C@H](CCC(=O)NCCNCCNCCNCCN)[C@H]1CC[C@H]2[C@@H]3CC[C@@H]4C[C@H](O)CC[C@]4(C)[C@H]3C[C@H](O)[C@]12C [Compound F, 3α,12α-dihydroxy-7-deoxy-5β-cholan-24-oic acid, N-(3,6,9-triaza-11-aminoundecyl)amide]						100 µg/mL (≈ 177 µM)	100 µg/mL (≈ 177 µM)	100 µg/mL (≈ 177 µM)	100 µg/mL (≈ 177 µM)	25 µg/mL (≈ 44.3 µM)
C[C@H](CCC(=O)NCCNCCNCCNCCNCCN)[C@H]1CC[C@H]2[C@@H]3CC[C@@H]4C[C@H](O)CC[C@]4(C)[C@H]3C[C@H](O)[C@]12C [Compound G, 3α,12α-dihydroxy-7-deoxy-5β-cholan-24-oic acid, N-(3,6,9,12-tetraaza-14-aminotetradecyl)amide]						100 µg/mL (≈ 165 µM)	50 µg/mL (≈ 82.4 µM)	50 to 100 µg/mL (≈ 82.4 to 165 µM)	100 µg/mL (≈ 165 µM)	25 µg/mL (≈ 41.2 µM)
C[C@H](CCC(=O)NCCNCCNCCNCCN)[C@H]1CC[C@H]2[C@@H]3[C@H](O)C[C@@H]4C[C@H](O)CC[C@]4(C)[C@H]3CC[C@]12C [Compound I, 3α,7α-dihydroxy-12-deoxy-5β-cholan-24-oic acid, N-(3,6,9-triaza-11-aminoundecyl)amide]						25 µg/mL (≈ 44.3 µM)	50 µg/mL (≈ 88.7 µM)	50 µg/mL (≈ 88.7 µM)	25 µg/mL (≈ 44.3 µM)	12.5 µg/mL (≈ 22.2 µM)
C[C@H](CCC(=O)NCCNCCNCCNCCN)[C@H]1CC[C@H]2[C@@H]3[C@H](O)C[C@@H]4C[C@H](O)CC[C@]4(C)[C@H]3C[C@H](O)[C@]12C [Compound J, 3α,7α,12α-trihydroxy-5β-cholan-24-oic acid, N-(3,6,9-triaza-11-aminoundecyl)amide]						75 µg/mL (≈ 129 µM)	75 µg/mL (≈ 129 µM)	37.5 µg/mL (≈ 64.7 µM)	18.7 µg/mL (≈ 32.2 µM)	37.5 µg/mL (≈ 64.7 µM)
C[C@H](CCC(=O)NCCNCCNCCNCCNCCN)[C@H]1CC[C@H]2[C@@H]3[C@H](O)C[C@@H]4C[C@H](O)CC[C@]4(C)[C@H]3C[C@H](O)[C@]12C [Compound K, 3α,7α,12α-trihydroxy-12-deoxy-5β-cholan-24-oic acid, N-(3,6,9,12-tetraaza-14-aminotetradecyl)amide]						75 µg/mL (≈ 120 µM)	75 µg/mL (≈ 120 µM)	75 µg/mL (≈ 120 µM)	15.7 µg/mL (≈ 25.2 µM)	37.5 µg/mL (≈ 60.2 µM)
C[C@H](CCC(=O)NCCNCCNCCNCCNCCN)[C@H]1CC[C@H]2[C@@H]3[C@H](O[C@H]4O[C@H](CO)[C@@H](O)[C@H](O)[C@H]4O)C[C@@H]4C[C@H](O)CC[C@]4(C)[C@H]3C[C@H](O[C@H]3O[C@H](CO)[C@@H](O)[C@H](O)[C@H]3O)[C@]12C [Compound L, 3α-hydroxy-7α,12α-di(1'α-glucosyl)-5β-cholan-24-oic acid, N-(3,6,9,12-tetraaza-14-aminotetradecyl)amide]						> 200 µg/mL	> 200 µg/mL	> 150 µg/mL	> 200 µg/mL	> 200 µg/mL
C[C@H](CCC(=O)NCCNCCNCCNCCN)[C@H]1CC[C@H]2[C@@H]3[C@H](O[C@H]4O[C@H](CO)[C@@H](O)[C@H](O)[C@H]4O)C[C@@H]4C[C@H](O)CC[C@]4(C)[C@H]3C[C@H](O[C@H]3O[C@H](CO)[C@@H](O)[C@H](O)[C@H]3O)[C@]12C [Compound M, 3α-hydroxy-7α,12α-di(1'α-glucosyl)-5β-cholan-24-oic acid, N-(3,6,9-triaza-11-aminoundecyl)amide]						> 200 µg/mL	> 200 µg/mL	> 150 µg/mL	> 200 µg/mL	> 200 µg/mL
C[C@H](CCC(=O)NCCNCCNCCNCCNCCN)[C@H]1CC[C@H]2[C@@H]3CC[C@@H]4C[C@H](O)CC[C@]4(C)[C@H]3CC[C@]12C [Compound N, 3α-hydroxy-7,12-dideoxy-5β-cholan-24-oic acid (or lithocholic acid), N-(3,6,9,12-tetraaza-14-aminotetradecyl)amide]						> 200 µg/mL	200 µg/mL (≈ 338 µM)	200 µg/mL (≈ 338 µM)	200 µg/mL (≈ 338 µM)	50 µg/mL (≈ 84.6 µM)
C[C@H](CCC(=O)O)[C@H]1CC[C@H]2[C@@H]3[C@H](O)C[C@@H]4C[C@H](O)CC[C@]4(C)[C@H]3C[C@H](O)[C@]12C [cholic acid sodium salt, reference compound]	> 200 µg/mL	> 200 µg/mL	> 200 µg/mL	> 200 µg/mL	> 200 µg/mL					
C[C@H](CCC(=O)O)[C@H]1CC[C@H]2[C@@H]3CC[C@@H]4C[C@H](O)CC[C@]4(C)[C@H]3C[C@H](O)[C@]12C [deoxycholic acid sodium salt, reference compound]		> 200 µg/mL	> 200 µg/mL	> 200 µg/mL	> 200 µg/mL	> 200 µg/mL				
